Test results reported in patent US10004701B2, “Methods and compositions for treating infection” (UNIVERSITY OF ROCHESTER, priority 2012, dated 2018).
Structures can show the parent of a compound that is named as a salt. Where two headings read alike, the source gives them in different places.

Columns and labels:
Assay in all cases: AK assay 384-well format, Prestwick library screening
K. pneumoniae = format: cell-based, Klebsiella pneumoniae; conditions: 50 μM final drug concentration; for fold induction at 50 µM: Klebsiella pneumoniae, 3 h
[1] = tested on: S. aureus strain USA300-0114; format: cell-based, Staphylococcus aureus; conditions: 50 μM final drug concentration; for fold induction at 50 µM: Staphylococcus aureus, USA300, 3 h
E. faecium = format: cell-based, Enterococcus faecium; conditions: 50 μM final drug concentration; for fold induction at 50 µM: Enterococcus faecium, 3 h
E. cloacae = format: cell-based, Enterobacter cloacae; conditions: 50 μM final drug concentration; for fold induction at 50 µM: Enterobacter cloacae, 3 h
E. coli = format: cell-based, Escherichia coli; conditions: 50 μM final drug concentration; for fold induction at 50 µM: Escherichia coli, 3 h
[2] = tested on: A. baumannii strain 98-37-09; format: cell-based, Acinetobacter baumannii; conditions: 50 μM final drug concentration; for fold induction at 50 µM: Acinetobacter baumannii, 983709, 3 h
P. aeruginosa = format: cell-based, Pseudomonas aeruginosa; conditions: 50 μM final drug concentration; for fold induction at 50 µM: Pseudomonas aeruginosa, 3 h
[3] = planktonic, cutoff for positive 3-fold increase, read-out: AK-based Prestwick Library Screening Results, K. pneumoniae (fold increase in extracellular AK activity)
[4] = planktonic, cutoff for positive 3-fold increase, read-out: AK-based Prestwick Library Screening Results, S. aureus (fold increase in extracellular AK activity)
[5] = planktonic, cutoff for positive 3-fold increase, read-out: AK-based Prestwick Library Screening Results, E. faecium (fold increase in extracellular AK activity)
[6] = planktonic, cutoff for positive 3-fold increase, read-out: AK-based Prestwick Library Screening Results, E. cloacae (fold increase in extracellular AK activity)
[7] = planktonic, cutoff for positive 3-fold increase, read-out: AK-based Prestwick Library Screening Results, E. coli (fold increase in extracellular AK activity)
[8] = planktonic, cutoff for positive 3-fold increase, read-out: AK-based Prestwick Library Screening Results, A. baumannii (fold increase in extracellular AK activity)
[9] = planktonic, cutoff for positive 3-fold increase, read-out: AK-based Prestwick Library Screening Results, P. aeruginosa (fold increase in extracellular AK activity)
[10] = planktonic, […], read-out: AK-based Prestwick Library Screening Results, K. pneumoniae (fold increase in extracellular AK activity)
[11] = planktonic, […], read-out: AK-based Prestwick Library Screening Results, S. aureus (fold increase in extracellular AK activity)
[12] = planktonic, […], read-out: AK-based Prestwick Library Screening Results, E. faecium (fold increase in extracellular AK activity)
[13] = planktonic, […], read-out: AK-based Prestwick Library Screening Results, E. cloacae (fold increase in extracellular AK activity)
[14] = planktonic, […], read-out: AK-based Prestwick Library Screening Results, E. coli (fold increase in extracellular AK activity)
[15] = planktonic, […], read-out: AK-based Prestwick Library Screening Results, A. baumannii (fold increase in extracellular AK activity)
[16] = planktonic, […], read-out: AK-based Prestwick Library Screening Results, P. aeruginosa (fold increase in extracellular AK activity)
[17] = cutoff for positive-scoring molecules 3-fold increase

Compound: CC(=O)N(O)CCCCCNC(=O)CCC(=O)N(O)CCCCCNC(=O)CCC(=O)N(O)CCCCCN [Deferoxamine mesylate]
- fold induction at 50 µM (K. pneumoniae; [3]): 0.5
- fold induction at 50 µM [1, 4]: 0.4
- fold induction at 50 µM (E. faecium; [5]): 0.9
- fold induction at 50 µM (E. cloacae; [6]): 0.4
- fold induction at 50 µM (E. coli; [7]): 0.4
- fold induction at 50 µM [2, 8]: 0.4
- fold induction at 50 µM (P. aeruginosa; [9]): 0.4

Compound: C[C@H](CCC(=O)O)[C@H]1CC[C@H]2[C@@H]3C(=O)C[C@@H]4CC(=O)CC[C@]4(C)[C@H]3CC(=O)[C@]12C [Dehydrocholic acid]
- fold induction at 50 µM (K. pneumoniae; 384-well format, cutoff for positive-scoring molecules 3-fold increase, read-out: AK-based Prestwick Library Screening Results, K. pneumoniae (increase in extracellular AK activity)): 0.8
- fold induction at 50 µM ([1]; 384-well format, cutoff for positive-scoring molecules 3-fold increase, read-out: AK-based Prestwick Library Screening Results, S. aureus (increase in extracellular AK activity)): 1
- fold induction at 50 µM (E. faecium; 384-well format, cutoff for positive-scoring molecules 3-fold increase, read-out: AK-based Prestwick Library Screening Results, E. faecium (increase in extracellular AK activity)): 1
- fold induction at 50 µM (E. cloacae; 384-well format, cutoff for positive-scoring molecules 3-fold increase, read-out: AK-based Prestwick Library Screening Results, E. cloacae (increase in extracellular AK activity)): 1.4
- fold induction at 50 µM (E. coli; 384-well format, cutoff for positive-scoring molecules 3-fold increase, read-out: AK-based Prestwick Library Screening Results, E. coli (increase in extracellular AK activity)): 1.3
- fold induction at 50 µM ([2]; 384-well format, cutoff for positive-scoring molecules 3-fold increase, read-out: AK-based Prestwick Library Screening Results, A. baumannii (increase in extracellular AK activity)): 1
- fold induction at 50 µM (P. aeruginosa; 384-well format, cutoff for positive-scoring molecules 3-fold increase, read-out: AK-based Prestwick Library Screening Results, P. aeruginosa (increase in extracellular AK activity)): 1

Compound: CC(=O)O[C@H]1CC[C@@]2(C)C(=CC[C@@H]3[C@@H]2CC[C@]2(C)C(=O)CC[C@@H]32)C1 [Dehydroisoandosterone 3-acetate]
- AK-based Prestwick Library Screening Results, K. pneumoniae (fold increase in extracellular AK activity) (K. pneumoniae; […]): 0.9
- AK-based Prestwick Library Screening Results, S. aureus (fold increase in extracellular AK activity) ([1]; […]): 0.8
- AK-based Prestwick Library Screening Results, E. faecium (fold increase in extracellular AK activity) (E. faecium; […]): 1.1
- AK-based Prestwick Library Screening Results, E. cloacae (fold increase in extracellular AK activity) (E. cloacae; […]): 1.7
- AK-based Prestwick Library Screening Results, E. coli (fold increase in extracellular AK activity) (E. coli; […]): 1.0
- AK-based Prestwick Library Screening Results, A. baumannii (fold increase in extracellular AK activity) ([2]; […]): 1.1
- AK-based Prestwick Library Screening Results, P. aeruginosa (fold increase in extracellular AK activity) (P. aeruginosa; […]): 1.1

Compound: CCN1C[C@]2(COC)CC[C@H](OC)[C@]34C5C[C@@H]6[C@@H](OC)C[C@@]7(OCO[C@@]7(C13)[C@@H](O)C24)C5[C@H]6OC (some centres unmarked) [Delcorine]
- fold induction at 50 µM (K. pneumoniae; [10]): 0.7
- fold induction at 50 µM [1, 11]: 0.7
- fold induction at 50 µM (E. faecium; [12]): 0.9
- fold induction at 50 µM (E. cloacae; [13]): 1.2
- fold induction at 50 µM (E. coli; [14]): 0.8
- fold induction at 50 µM [2, 15]: 0.9
- fold induction at 50 µM (P. aeruginosa; [16]): 0.9

Compound: CCN1C[C@]2(COC)CC[C@H](O)[C@]34C1[C@@](O)([C@@H](OC)[C@H]23)[C@@]1(O)C[C@H](OC)[C@H]2C[C@@H]4[C@@H]1[C@H]2OC [Delsoline]
- fold induction at 50 µM (K. pneumoniae; [10]): 0.7
- fold induction at 50 µM [1, 11]: 0.8
- fold induction at 50 µM (E. faecium; [12]): 0.9
- fold induction at 50 µM (E. cloacae; [13]): 1.3
- fold induction at 50 µM (E. coli; [14]): 0.9
- fold induction at 50 µM [2, 15]: 0.9
- fold induction at 50 µM (P. aeruginosa; [16]): 0.8

Compound: CCN1C[C@]2(C)CC[C@H](OC)[C@@]34C1[C@]1(OCO[C@@]15C[C@H](OC)[C@H]1C[C@]3(O)[C@@H]5[C@H]1OC)[C@@H](OC(C)=O)[C@H]24 [Deltaline]
- fold induction at 50 µM (K. pneumoniae; [10]): 0.7
- fold induction at 50 µM [1, 11]: 0.8
- fold induction at 50 µM (E. faecium; [12]): 0.9
- fold induction at 50 µM (E. cloacae; [13]): 1.1
- fold induction at 50 µM (E. coli; [14]): 0.9
- fold induction at 50 µM [2, 15]: 0.8
- fold induction at 50 µM (P. aeruginosa; [16]): 0.8

Compound: CN(CCCCCCCCCCN(C)C(=O)Oc1cccc([N+](C)(C)C)c1)C(=O)Oc1cccc([N+](C)(C)C)c1 [Demecarium bromide]
- fold induction at 50 µM (K. pneumoniae; [10]): 1
- fold induction at 50 µM [1, 11]: 0.8
- fold induction at 50 µM (E. faecium; [12]): 1
- fold induction at 50 µM (E. cloacae; [13]): 2
- fold induction at 50 µM (E. coli; [14]): 1.4
- fold induction at 50 µM [2, 15]: 1.1
- fold induction at 50 µM (P. aeruginosa; [16]): 1.3

Compound: CN(C)[C@@H]1C(O)=C(C(N)=O)C(=O)[C@@]2(O)C(O)=C3C(=O)c4c(O)ccc(Cl)c4[C@@H](O)[C@H]3C[C@@H]12 [Demeclocycline hydrochloride]
- fold induction at 50 µM (K. pneumoniae; planktonic, cutoff for positive-scoring molecules 3-fold increase, read-out: AK-based Prestwick Library Screening Results, K. pneumoniae (fold increase in extracellular AK activity)): 0.2
- fold induction at 50 µM ([1]; planktonic, cutoff for positive-scoring molecules 3-fold increase, read-out: AK-based Prestwick Library Screening Results, S. aureus (fold increase in extracellular AK activity)): 7.1
- fold induction at 50 µM (E. faecium; planktonic, cutoff for positive-scoring molecules 3-fold increase, read-out: AK-based Prestwick Library Screening Results, E. faecium (fold increase in extracellular AK activity)): 0.9
- fold induction at 50 µM (E. cloacae; planktonic, cutoff for positive-scoring molecules 3-fold increase, read-out: AK-based Prestwick Library Screening Results, E. cloacae (fold increase in extracellular AK activity)): 1.3
- fold induction at 50 µM (E. coli; planktonic, cutoff for positive-scoring molecules 3-fold increase, read-out: AK-based Prestwick Library Screening Results, E. coli (fold increase in extracellular AK activity)): 0.5
- fold induction at 50 µM ([2]; planktonic, cutoff for positive-scoring molecules 3-fold increase, read-out: AK-based Prestwick Library Screening Results, A. baumannii (fold increase in extracellular AK activity)): 3.4
- fold induction at 50 µM (P. aeruginosa; planktonic, cutoff for positive-scoring molecules 3-fold increase, read-out: AK-based Prestwick Library Screening Results, P. aeruginosa (fold increase in extracellular AK activity)): 0.4

Compound: CC[N+](CC)(CC(=O)Nc1c(C)cccc1C)Cc1ccccc1 [Denatonium benzoate]
- fold induction at 50 µM (K. pneumoniae; cutoff for positive-scoring molecules 3-fold increase, read-out: AK-based Prestwick Library Screening Results, K. pneumoniae (fold increase in extracellular AK activity)): 0.4
- fold induction at 50 µM ([1]; cutoff for positive-scoring molecules 3-fold increase, read-out: AK-based Prestwick Library Screening Results, S. aureus (fold increase in extracellular AK activity)): 0.4
- fold induction at 50 µM (E. faecium; cutoff for positive-scoring molecules 3-fold increase, read-out: AK-based Prestwick Library Screening Results, E. faecium (fold increase in extracellular AK activity)): 0.9
- fold induction at 50 µM (E. cloacae; cutoff for positive-scoring molecules 3-fold increase, read-out: AK-based Prestwick Library Screening Results, E. cloacae (fold increase in extracellular AK activity)): 0.4
- fold induction at 50 µM (E. coli; cutoff for positive-scoring molecules 3-fold increase, read-out: AK-based Prestwick Library Screening Results, E. coli (fold increase in extracellular AK activity)): 0.5
- fold induction at 50 µM ([2]; cutoff for positive-scoring molecules 3-fold increase, read-out: AK-based Prestwick Library Screening Results, A. baumannii (fold increase in extracellular AK activity)): 0.3
- fold induction at 50 µM (P. aeruginosa; cutoff for positive-scoring molecules 3-fold increase, read-out: AK-based Prestwick Library Screening Results, P. aeruginosa (fold increase in extracellular AK activity)): 0.4

Compound: C[C@]12CC[C@H]3[C@@H](CCC4=CC(=O)CC[C@@]43C)[C@@H]1CC[C@@H]2C(=O)CO [Deoxycorticosterone]
- AK-based Prestwick Library Screening Results, K. pneumoniae (fold increase in extracellular AK activity) (K. pneumoniae; [17]): 1.2
- AK-based Prestwick Library Screening Results, S. aureus (fold increase in extracellular AK activity) [1, 17]: 1.6
- AK-based Prestwick Library Screening Results, E. faecium (fold increase in extracellular AK activity) (E. faecium; [17]): 1.2
- AK-based Prestwick Library Screening Results, E. cloacae (fold increase in extracellular AK activity) (E. cloacae; [17]): 1.3
- AK-based Prestwick Library Screening Results, E. coli (fold increase in extracellular AK activity) (E. coli; [17]): 1.2
- AK-based Prestwick Library Screening Results, A. baumannii (fold increase in extracellular AK activity) [2, 17]: 1.3
- AK-based Prestwick Library Screening Results, P. aeruginosa (fold increase in extracellular AK activity) (P. aeruginosa; [17]): 1.3

Compound: Cc1cc(N)c2ccccc2[n+]1CCCCCCCCCC[n+]1c(C)cc(N)c2ccccc21 [Dequalinium dichloride]
- fold induction at 50 µM (K. pneumoniae; [3]): 1.6
- fold induction at 50 µM [1, 4]: 1.2
- fold induction at 50 µM (E. faecium; [5]): 1.1
- fold induction at 50 µM (E. cloacae; [6]): 1.8
- fold induction at 50 µM (E. coli; [7]): 3
- fold induction at 50 µM [2, 8]: 3.2
- fold induction at 50 µM (P. aeruginosa; [9]): 2.3
